The numbers were not newly measured in patent US11771784B2, “Material, device, and method for deactivating pathogen in aerosol, and methods for manufacturing thereof” (priority 2016, dated 2023), which cites them from elsewhere.

For this data set the following is noted: in water.

(sodium/potassium) tartrates: the maximum solubility limit result is on record as “about 660 g/l”.

Take `[Cl-].[K+]` [potassium chloride]: the maximum solubility limit entry is given as “about 355 g/l”.
